Measured values from publication PMC10730845, “Endoxifen downregulates AKT phosphorylation through protein kinase C beta 1 inhibition in ERα+ breast cancer” (NPJ Breast Cancer, 2023).

Columns and labels:
PKC alpha (PKCa) = PKC alpha (PKCa) (Homo sapiens, UniProt P17252); assay: In vitro kinase assay, PKC alpha; format: biochemical; details: 10 μM ATP
Text: (§1) Supplementary Table 4. In vitro kinase assay showing the IC 50 concentration of ENDX and
(§2) of the 12 PKC family members.
(§3) (1 picture or pasted object on this page, not shown here)

PKC beta 2 (PKCb2) = PKC beta 2 (PKCb2) (Homo sapiens, UniProt P05771); assay: In vitro kinase assay, PKC beta 2; format: biochemical; details: 10 μM ATP
Sequence of PKC beta 2 (PKCb2) (P05771 1-673 isoform P05771-2): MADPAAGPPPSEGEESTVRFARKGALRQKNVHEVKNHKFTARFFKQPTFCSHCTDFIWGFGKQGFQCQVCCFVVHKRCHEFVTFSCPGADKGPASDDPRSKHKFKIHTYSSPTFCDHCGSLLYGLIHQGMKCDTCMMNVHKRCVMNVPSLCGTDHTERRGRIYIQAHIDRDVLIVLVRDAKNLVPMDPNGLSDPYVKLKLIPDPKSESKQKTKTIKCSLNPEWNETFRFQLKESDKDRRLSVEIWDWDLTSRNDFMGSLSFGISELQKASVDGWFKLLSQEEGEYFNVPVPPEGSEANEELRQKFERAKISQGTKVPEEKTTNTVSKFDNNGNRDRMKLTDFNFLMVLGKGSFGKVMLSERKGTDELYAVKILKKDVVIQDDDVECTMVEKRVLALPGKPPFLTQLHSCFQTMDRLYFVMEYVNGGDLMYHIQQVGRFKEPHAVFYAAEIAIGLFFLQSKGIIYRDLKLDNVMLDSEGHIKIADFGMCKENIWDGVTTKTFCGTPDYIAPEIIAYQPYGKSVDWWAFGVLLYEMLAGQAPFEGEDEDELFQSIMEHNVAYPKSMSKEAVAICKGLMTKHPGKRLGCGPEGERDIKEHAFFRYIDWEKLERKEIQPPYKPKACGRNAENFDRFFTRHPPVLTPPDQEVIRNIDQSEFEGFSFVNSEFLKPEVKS
Text: as §1, §2, §3

[1] = tested on: AKT^Ser473 phosphorylation in T47D-LTED cells; assay: Immunoblot of pAKT^Ser473, T47D-LTED; format: cell-based, human; details: CSS medium, 24 h; 5 µM
Protocol: Protein lysates were prepared using the RIPA lysis buffer system (ChemCruz #sc-24948) and quantified using the DC^TM Protein Assay reagents (Bio-Rad #5000112). Equal amounts of protein lysates were separated on 10% Criterion gels (Bio-Rad #3450112), transferred to PVDF membranes (Bio-Rad #1620177), blocked in TBST-5% milk and probed with primary antibodies listed in Supplementary Table 5, at the indicated dilutions. Membranes were incubated with HRP-conjugated anti-rabbit (CST #7074) or anti-mouse (CST #7076) secondary antibodies and visualized using chemiluminescent West Pico (Thermo Scientific #34580) or West Femto (Thermo Scientific #34096) reagents and a Li-Cor Odyssey® XF imager. Protein lysates from the MCF7AC1 xenograft model were obtained from a previous study. Quantitation of the protein bands signal intensity was performed using the NIH ImageJ image analysis software (https://imagej.nih.gov/ij///index.html). For the quantitation of the phospho protein levels, we first normalized total protein levels to β-actin loading control and used these values to normalize the phospho protein levels and compared change in protein expression levels relative to vehicle control normalized to 1.0. For the quantitation of total protein levels, we normalized the total protein levels to β-actin and compared change in expression levels relative to vehicle control normalized to 1.0. […]

PKC thetha (PKCq) = PKC thetha (PKCq) (Homo sapiens, UniProt Q04759); assay: In vitro kinase assay, PKC thetha; format: biochemical; details: 10 μM ATP
Sequence of PKC thetha (PKCq) (Q04759 whole entry): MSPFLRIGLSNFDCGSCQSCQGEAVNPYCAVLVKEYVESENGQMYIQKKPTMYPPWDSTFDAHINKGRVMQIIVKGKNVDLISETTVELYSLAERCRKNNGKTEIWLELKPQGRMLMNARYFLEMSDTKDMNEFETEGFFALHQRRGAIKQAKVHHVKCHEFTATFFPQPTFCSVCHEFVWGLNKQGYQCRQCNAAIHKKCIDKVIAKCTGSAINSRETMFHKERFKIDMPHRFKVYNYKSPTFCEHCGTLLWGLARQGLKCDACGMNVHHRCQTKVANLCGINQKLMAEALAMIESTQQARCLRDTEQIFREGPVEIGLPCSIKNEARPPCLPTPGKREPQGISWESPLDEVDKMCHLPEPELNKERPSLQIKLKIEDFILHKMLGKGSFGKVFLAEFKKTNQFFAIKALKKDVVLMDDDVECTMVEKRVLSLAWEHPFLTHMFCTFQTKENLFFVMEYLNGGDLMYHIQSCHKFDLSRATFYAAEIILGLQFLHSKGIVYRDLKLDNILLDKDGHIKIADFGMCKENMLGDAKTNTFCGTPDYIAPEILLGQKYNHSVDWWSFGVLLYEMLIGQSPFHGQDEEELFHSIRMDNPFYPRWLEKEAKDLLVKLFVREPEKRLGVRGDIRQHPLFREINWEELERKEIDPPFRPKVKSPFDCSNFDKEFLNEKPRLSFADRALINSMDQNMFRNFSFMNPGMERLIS
Text: . The IC50 concentrations of these drugs in inhibiting PKC kinase activity are provided in Supplementary Table 4.
as §1, §2
*: not available due to no inhibition or compound activity that could not be fit to an IC50 curve.
Staurosporine serves as the positive control.
as §3

[2] = tested on: MCF7AC1 aromatase inhibitor-sensitive and -resistant models; design: method as in PMID 32430040; details: cited from earlier work
MCF7AC1 xenograft tumors = assay: Immunoblot of MCF7AC1 xenograft tumor lysates after in vivo treatment; design: species or system mice; details: four weeks
Protocol: Protein lysates were prepared using the RIPA lysis buffer system (ChemCruz #sc-24948) and quantified using the DC^TM Protein Assay reagents (Bio-Rad #5000112). Equal amounts of protein lysates were separated on 10% Criterion gels (Bio-Rad #3450112), transferred to PVDF membranes (Bio-Rad #1620177), blocked in TBST-5% milk and probed with primary antibodies listed in Supplementary Table 5, at the indicated dilutions. Membranes were incubated with HRP-conjugated anti-rabbit (CST #7074) or anti-mouse (CST #7076) secondary antibodies and visualized using chemiluminescent West Pico (Thermo Scientific #34580) or West Femto (Thermo Scientific #34096) reagents and a Li-Cor Odyssey® XF imager. Protein lysates from the MCF7AC1 xenograft model were obtained from a previous study. Quantitation of the protein bands signal intensity was performed using the NIH ImageJ image analysis software (https://imagej.nih.gov/ij///index.html). For the quantitation of the phospho protein levels, we first normalized total protein levels to β-actin loading control and used these values to normalize the phospho protein levels and compared change in protein expression levels relative to vehicle control normalized to 1.0. For the quantitation of total protein levels, we normalized the total protein levels to β-actin and compared change in expression levels relative to vehicle control normalized to 1.0. All blots were processed in parallel and derived from the same experiments. Unprocessed immunoblot images are provided in Supplementary Figs. 9–13.
Supplementary Figure 2. […]
Supplementary Figure 6. […]
MK-2206 in CSS medium for 24 hours. IB assay of pAKTSer473, AKT, PARP, cleaved PARP and
β-actin. d, MCF7AC1 xenograft protein lysates were treated with the indicated drugs for four
weeks. […]
ANOVA for figs. (a), (b), (g), (h) and (i) and unpaired t test for fig. (e).

[3] = tested on: ERα+/HER2- metastatic breast cancer; details: cited from earlier work

For `CC/C(=C(\c1ccc(O)cc1)c1ccc(OCCNC)cc1)c1ccccc1` [ENDX, Z-endoxifen], the IC50 (PKC alpha (PKCa)) was greater than 50 µM, the IC50 (PKC beta 2 (PKCb2)) was 43.3 µM and the “Effect on AKT^Ser473 phosphorylation” value [1] was “attenuated AKT^Ser473 phosphorylation”. The IC50 (PKC thetha (PKCq)) was 41.8 µM, the “In vivo antitumor activity” value [2] was “superior in vivo antitumor activity compared to TAM and letrozole” and the “Effect on AKT phosphorylated substrates in tumors” value (MCF7AC1 xenograft tumors; 75 mg/kg) was “reduced the levels of AKT phosphorylated substrates”. For the same molecule, the “Effect on AKT^Thr308 phosphorylation in tumors” value (MCF7AC1 xenograft tumors; 75 mg/kg) was “no appreciable impact on AKT^Thr308 phosphorylation”, the “Effect on AKT^Ser473 phosphorylation in tumors” value (MCF7AC1 xenograft tumors; 75 mg/kg, vs control treatment) was “attenuated AKT^Ser473 phosphorylation” and the “Dose increasing PARP cleavage in tumors” value (MCF7AC1 xenograft tumors; not at 25 mg/kg) was 75 mg/kg. For the same molecule, the “PFS hazard ratio (HR) ENDX vs TAM, CDK4/6i naïve patients” value ([3]; 95% CI 0.22–0.80) was 0.42, the “PFS hazard ratio (HR) ENDX vs TAM, overall” value ([3]; 95% CI 0.49–1.22) was 0.77 and the “PFS in CDK4/6 inhibitor naïve patients” value ([3]; CDK4/6i naïve) was 7.2 m. For the same molecule, the “Progression free survival (PFS) overall” value ([3]; women with ERα+/HER2- metastatic breast cancer progressed on endocrine therapy) was 4.3 m.
